IC50 data for 26 compounds are collected here from US9708308B2, “Factor IXa inhibitors” (Merck Sharp & Dohme Corp., priority 2012, dated 2017).

pIC50: −log10 of the molar value.

The target of this test is Factor IXa (Homo sapiens, UniProt P00740). Nature of the test: Determination of inhibitory activity against Factor IXa (cleavage of fluorescent peptide substrate). The class given is biochemical. Conditions: cleavage of fluorescent peptide CH3SO2-D-CHG-Gly-Arg-AFC, release of AFC; read-out: FIXa IC50. In outline: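 Factor IXa activity followed via cleavage of CH3SO2-D-CHG-Gly-Arg-AFC, releasing AFC. Fluorescence read at excitation 405 nm, emission 510 nm.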
Sequence of Factor IXa (P00740 227-461 limits assumed): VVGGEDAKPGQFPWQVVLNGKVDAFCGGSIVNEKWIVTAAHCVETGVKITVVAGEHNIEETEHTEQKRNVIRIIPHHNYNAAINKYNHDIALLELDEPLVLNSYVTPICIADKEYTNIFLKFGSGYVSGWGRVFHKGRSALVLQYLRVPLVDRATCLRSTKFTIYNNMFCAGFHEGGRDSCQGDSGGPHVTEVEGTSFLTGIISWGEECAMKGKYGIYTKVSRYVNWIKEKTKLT
Sequence of Factor IXa (P00740 47-191 partner limits assumed): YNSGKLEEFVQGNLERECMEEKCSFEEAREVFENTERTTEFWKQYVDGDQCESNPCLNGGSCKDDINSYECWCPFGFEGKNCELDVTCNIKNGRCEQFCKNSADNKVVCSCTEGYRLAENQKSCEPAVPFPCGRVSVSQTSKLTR
On to `C[C@]1([C@@H](O)C(=O)Nc2ccc3c(N)noc3c2)OCCN(c2cccc(-c3cnc(C(F)(F)F)nc3)n2)C1=O` [Example 113, (R)—N-(3-aminobenzo[d]isoxazol-6-yl)-2-hydroxy-2-((R)-2-methyl-3-oxo-4-(6-(2-(trifluoromethyl)pyrimidin-5-yl)pyridin-2-yl)morpholin-2-yl)acetamide], for which the pIC50 (as a rule, the negative decadic logarithm of the IC50, by convention in mol/L) was 6.33.
For `C[C@]1([C@@H](O)C(=O)Nc2ccc3c(N)noc3c2)OCCN(c2cccc(-c3cnoc3)n2)C1=O` [Example 114, (R)—N-(3-aminobenzo[d]isoxazol-6-yl)-2-hydroxy-2-((R)-4-(6-(isoxazol-4-yl)pyridin-2-yl)-2-methyl-3-oxomorpholin-2-yl)acetamide], the negative logarithm of the IC50 (pIC50) was 7.34.
As for `Cc1nocc1-c1cccc(N2CCO[C@](C)([C@@H](O)C(=O)Nc3ccc4c(N)noc4c3)C2=O)n1` [Example 115, (R)—N-(3-aminobenzo[d]isoxazol-6-yl)-2-hydroxy-2-((R)-2-methyl-4-(6-(3-methylisoxazol-4-yl)pyridin-2-yl)-3-oxomorpholin-2-yl)acetamide], the figure is 7.17; as for `Cc1noc(C)c1-c1cccc(N2CCO[C@](C)([C@@H](O)C(=O)Nc3ccc4c(N)noc4c3)C2=O)n1` [Example 116, (R)—N-(3-aminobenzo[d]isoxazol-6-yl)-2-((R)-4-(6-(3,5-dimethylisoxazol-4-yl)pyridin-2-yl)-2-methyl-3-oxomorpholin-2-yl)-2-hydroxyacetamide], 7.03; as for `C[C@]1([C@@H](O)C(=O)Nc2ccc3c(N)noc3c2)OCCN(c2ccc3ccncc3n2)C1=O` [Example 117, (R)—N-(3-aminobenzo[d]isoxazol-6-yl)-2-hydroxy-2-((R)-2-methyl-4-(1,7-naphthyridin-2-yl)-3-oxomorpholin-2-yl)acetamide], 6.26.
As for `C[C@]1([C@@H](O)C(=O)Nc2ccc3c(N)noc3c2)OCCN(c2ccc3cc(C(F)(F)F)ncc3n2)C1=O` [Example 118, (R)—N-(3-aminobenzo[d]isoxazol-6-yl)-2-hydroxy-2-((R)-2-methyl-3-oxo-4-(6-(trifluoromethyl)-1,7-naphthyridin-2-yl)morpholin-2-yl)acetamide], the figure is 6.99.
In the case of `C[C@](O)(C(=O)Nc1cc(Cl)c2c(N)noc2c1)[C@H]1OCCN(c2ccn(-c3ccncc3)n2)C1=O` [Example 119, (R)—N-(3-amino-4-chlorobenzo[d]isoxazol-6-yl)-2-hydroxy-2-((R)-3-oxo-4-(1-(pyridin-4-yl)-1H-pyrazol-3-yl)morpholin-2-yl)propanamide] it was 6.65; in that of `C[C@](O)(C(=O)Nc1cc(Cl)c2c(N)noc2c1)[C@H]1OCCN(c2ccn(-c3ccnc(C(F)(F)F)c3)n2)C1=O` [Example 120, (R)—N-(3-amino-4-chlorobenzo[d]isoxazol-6-yl)-2-hydroxy-2-((R)-3-oxo-4-(1-(2-(trifluoromethyl)pyridin-4-yl)-1H-pyrazol-3-yl)morpholin-2-yl)propanamide], 5.98.
Take `C[C@](O)(C(=O)Nc1cc(Cl)c2c(N)noc2c1)[C@H]1OCCN(c2nn(-c3ccnc(C(F)(F)F)c3)cc2F)C1=O` [Example 121, (R)—N-(3-amino-4-chlorobenzo[d]isoxazol-6-yl)-2-((R)-4-(4-fluoro-1-(2-(trifluoromethyl)pyridin-4-yl)-1H-pyrazol-3-yl)-3-oxomorpholin-2-yl)-2-hydroxypropanamide]: the pIC50 is 6.71.
In the case of `C[C@](O)(C(=O)Nc1cc(Cl)c2c(N)noc2c1)[C@H]1OCCN(c2ccn(-c3ccnnc3)n2)C1=O` [Example 122, (R)—N-(3-amino-4-chlorobenzo[d]isoxazol-6-yl)-2-hydroxy-2-((R)-3-oxo-4-(1-(pyridazin-4-yl)-1H-pyrazol-3-yl)morpholin-2-yl)propanamide] it was 6.89; in that of `C[C@](O)(C(=O)Nc1cc(Cl)c2c(N)noc2c1)[C@H]1OCCN(c2nn(-c3ccnnc3)cc2F)C1=O` [Example 123, (R)—N-(3-amino-4-chlorobenzo[d]isoxazol-6-yl)-2-((R)-4-(4-fluoro-1-(pyridazin-4-yl)-1H-pyrazol-3-yl)-3-oxomorpholin-2-yl)-2-hydroxypropanamide], 7.66.
In the case of `C[C@](O)(C(=O)Nc1cc(Cl)c2c(N)noc2c1)[C@H]1OCCN(c2nn(-c3cnnc(C#N)c3)cc2F)C1=O` [Example 124, (R)—N-(3-amino-4-chlorobenzo[d]isoxazol-6-yl)-2-((R)-4-(1-(6-cyanopyridazin-4-yl)-4-fluoro-1H-pyrazol-3-yl)-3-oxomorpholin-2-yl)-2-hydroxypropanamide] it was 6.80; in that of `COc1cc(-n2cc(F)c(N3CCO[C@H]([C@@](C)(O)C(=O)Nc4cc(Cl)c5c(N)noc5c4)C3=O)n2)cnn1` [Example 125, (R)—N-(3-amino-4-chlorobenzo[d]isoxazol-6-yl)-2-((R)-4-(4-fluoro-1-(6-methoxypyridazin-4-yl)-1H-pyrazol-3-yl)-3-oxomorpholin-2-yl)-2-hydroxypropanamide], 7.35.
As for `C[C@](O)(C(=O)Nc1cc(Cl)c2c(N)noc2c1)[C@H]1OCCN(c2nn(-c3cnnc(C(F)(F)F)c3)cc2F)C1=O` [Example 126, (R)—N-(3-amino-4-chlorobenzo[d]isoxazol-6-yl)-2-((R)-4-(4-fluoro-1-(6-(trifluoromethyl)pyridazin-4-yl)-1H-pyrazol-3-yl)-3-oxomorpholin-2-yl)-2-hydroxypropanamide], the figure is 7.50; as for `C[C@]1([C@@H](O)C(=O)Nc2cc(Cl)c3c(N)noc3c2)OCCN(c2ccn(-c3ccc(S(C)(=O)=O)cc3)n2)C1=O` [Example 127, (R)—N-(3-amino-4-chlorobenzo[d]isoxazol-6-yl)-2-hydroxy-2-((R)-2-methyl-4-(1-(4-(methylsulfonyl)phenyl)-1H-pyrazol-3-yl)-3-oxomorpholin-2-yl)acetamide], 6.13; as for `C[C@]1([C@@H](O)C(=O)Nc2cc(Cl)c3c(N)noc3c2)OCCN(c2ccn(-c3ccncc3)n2)C1=O` [Example 128, (R)—N-(3-amino-4-chlorobenzo[d]isoxazol-6-yl)-2-hydroxy-2-((R)-2-methyl-3-oxo-4-(1-(pyridin-4-yl)-1H-pyrazol-3-yl)morpholin-2-yl)acetamide], 6.65.
Turning to `C[C@](O)(C(=O)Nc1cc(F)c2c(N)noc2c1)[C@H]1OCCN(c2ccn(-c3ccncc3)n2)C1=O` [Example 129, (R)—N-(3-amino-4-fluorobenzo[d]isoxazol-6-yl)-2-hydroxy-2-((R)-3-oxo-4-(1-(pyridin-4-yl)-1H-pyrazol-3-yl)morpholin-2-yl)propanamide], the negative-log IC50 (pIC50) was 7.30.
As for `Cc1cc(-n2ccc(N3CCO[C@H]([C@@](C)(O)C(=O)Nc4cc(F)c5c(N)noc5c4)C3=O)n2)ccn1` [Example 130, (R)—N-(3-amino-4-fluorobenzo[d]isoxazol-6-yl)-2-hydroxy-2-((R)-4-(1-(2-methylpyridin-4-yl)-1H-pyrazol-3-yl)-3-oxomorpholin-2-yl)propanamide], the figure is 6.68; as for `C[C@](O)(C(=O)Nc1cc(F)c2c(N)noc2c1)[C@H]1OCCN(c2ccn(-c3ccnc(C(F)(F)F)c3)n2)C1=O` [Example 131, (R)—N-(3-amino-4-fluorobenzo[d]isoxazol-6-yl)-2-hydroxy-2-((R)-3-oxo-4-(1-(2-(trifluoromethyl)pyridin-4-yl)-1H-pyrazol-3-yl)morpholin-2-yl)propanamide], 7.02; as for `C[C@](O)(C(=O)Nc1cc(F)c2c(N)noc2c1)[C@H]1OCCN(c2ccn(-c3ccnc(C#N)c3)n2)C1=O` [Example 132, (R)—N-(3-amino-4-fluorobenzo[d]isoxazol-6-yl)-2-((R)-4-(1-(2-cyanopyridin-4-yl)-1H-pyrazol-3-yl)-3-oxomorpholin-2-yl)-2-hydroxypropanamide], 6.93.
As for `COc1cc(-n2ccc(N3CCO[C@H]([C@@](C)(O)C(=O)Nc4cc(F)c5c(N)noc5c4)C3=O)n2)ccn1` [Example 133, (R)—N-(3-amino-4-fluorobenzo[d]isoxazol-6-yl)-2-hydroxy-2-((R)-4-(1-(2-methoxypyridin-4-yl)-1H-pyrazol-3-yl)-3-oxomorpholin-2-yl)propanamide], the figure is 6.56; as for `C[C@](O)(C(=O)Nc1cc(F)c2c(N)noc2c1)[C@H]1OCCN(c2nn(-c3ccncc3)cc2F)C1=O` [Example 134, (R)—N-(3-amino-4-fluorobenzo[d]isoxazol-6-yl)-2-((R)-4-(4-fluoro-1-(pyridin-4-yl)-1H-pyrazol-3-yl)-3-oxomorpholin-2-yl)-2-hydroxypropanamide], 7.26.
In the case of `C[C@](O)(C(=O)Nc1cc(F)c2c(N)noc2c1)[C@H]1OCCN(c2ccn(-c3ccnnc3)n2)C1=O` [Example 135, (R)—N-(3-amino-4-fluorobenzo[d]isoxazol-6-yl)-2-hydroxy-2-((R)-3-oxo-4-(1-(pyridazin-4-yl)-1H-pyrazol-3-yl)morpholin-2-yl)propanamide] it was 7.99; in that of `C[C@](O)(C(=O)Nc1cc(F)c2c(N)noc2c1)[C@H]1OCCN(c2ccn(-c3cnnc(N4CCC4)c3)n2)C1=O` [Example 136, (R)—N-(3-amino-4-fluorobenzo[d]isoxazol-6-yl)-2-((R)-4-(1-(6-(azetidin-1-yl)pyridazin-4-yl)-1H-pyrazol-3-yl)-3-oxomorpholin-2-yl)-2-hydroxypropanamide], 7.27.
On to `CC(C)Oc1cc(-n2ccc(N3CCO[C@H]([C@@](C)(O)C(=O)Nc4cc(F)c5c(N)noc5c4)C3=O)n2)cnn1` [Example 137, (R)—N-(3-amino-4-fluorobenzo[d]isoxazol-6-yl)-2-hydroxy-2-((R)-4-(1-(6-isopropoxypyridazin-4-yl)-1H-pyrazol-3-yl)-3-oxomorpholin-2-yl)propanamide], for which the negative logarithm of the IC50 (pIC50) was 6.72.
In the case of `C[C@](O)(C(=O)Nc1cc(F)c2c(N)noc2c1)[C@H]1OCCN(c2ccn(-c3cnnc(C#N)c3)n2)C1=O` [Example 138, (R)—N-(3-amino-4-fluorobenzo[d]isoxazol-6-yl)-2-((R)-4-(1-(6-cyanopyridazin-4-yl)-1H-pyrazol-3-yl)-3-oxomorpholin-2-yl)-2-hydroxypropanamide] it was 8.15.
